Results reported in patent US20210069120A1, “COMPOSITE NANOPARTICLE, PREPARATION METHOD THEREOF AND PREPARATION METHOD OF COMPOSITE NANO PREPARATION USING THEREOF” (JINAN UNIVERSITY, priority 2018, published 2021).

Assays:
MDA-MB-231 cells [1] = test: Apoptosis of MDA-MB-231 cells detected by flow cytometry (Annexin V-FITC/PI); type: cell-based, human
Experimental: After Blank PLN, PTX, PSO, I-PSO, PTX+PSO+I-PSO and (PTX+PSO+I-PSO)-PLN were used to act on the MDA-MB-231 cells respectively, a blank control without drug treatment was set at the same time. Cells were collected, an Annexin V-FITC buffer solution and a propidium iodide (PI) staining solution were added respectively, and cell apoptosis was detected by a flow cytometry, wherein green fluorescence was Annexin V-FITC, and red fluorescence was PI. Annexin V-FITC/PI double staining was dominant in late apoptotic cells and dead cells which referred to an upper right region on a flow cytometry diagram, while AnnexinV-FITC staining was dominant in early apoptotic cells which referred to a lower right region on the flow cytometry diagram. The experiment was repeated for three times.

MDA-MB-231 cells [2] = test: MTT proliferation inhibition / toxicity on MDA-MB-231; type: cell-based, human; conditions: 48 hours, concentration range of 0.39 to 100 μmol/L
Experimental: 4×10^3 MDA-MB-231 cells/well were inoculated into a 96-well plate with a concentration of 100 μL/well, and cultured in a 5% CO2 cell incubator at 37° C. for 24 hours, then a supernatant was removed after 24 hours, and 200 μL of drug-containing medium was added. The final concentrations of the PTX added to the MDA-MB-231 cells were 0.0039 μmol/L, 0.0078 μmol/L, 0.0156 μmol/L, 0.03125 μmol/L, 0.0625 μmol/L, 0.125 μmol/L, 0.25 μmol/L, 0.5 μmol/L and 1 μmol/L. At the same time, a control group (the same amount of culture fluid was added) and a blank zeroing group were set up. Each well was provided with 6 multiple wells and placed in a CO2 incubator for continuous cultivation for 48 hours. […] An OD value was measured at 570 nm of an enzyme reader. […]
(§1) 4×10^3 MDA-MB-231 cells/well were inoculated into a 96-well plate with a concentration of 100 μL/well, and cultured in a 5% CO2 cell incubator at 37° C. for 24 hours, then a supernatant was removed after 24 hours, and 200 μL of drug-containing medium was added. […] An OD value was measured at 570 nm of an enzyme reader. […]
as §1

Structure (SMILES) | Apoptosis rate (%) of MDA-MB-231 cells (MDA-MB-231 cells [1]) | toxicity to the MDA-MB-231 cells (cell viability) (MDA-MB-231 cells [2])
CC(=O)O[C@H]1C(=O)[C@@]2(C)[C@H]([C@H](OC(=O)c3ccccc3)[C@]3(O)C[C@H](OC(=O)[C@H](O)[C@@H](NC(=O)c4ccccc4)c4ccccc4)C(C)=C1C3(C)C)[C@]1(OC(C)=O)CO[C@@H]1C[C@@H]2O [PTX, paclitaxel] | 15.1% | –
O=c1ccc2cc3ccoc3cc2o1 [PSO, psoralen] | 13.8% | no obvious toxicity
O=c1ccc2ccc3occc3c2o1 [I-PSO, isopsoralen] | 11.5% | –
